Earlier results in US7517693B2, “Method and apparatus for determining a molecular descriptor of absorption for a candidate compound” (North Carolina State University, priority 2002, dated 2009).

Conditions: Table III calibration compounds, known literature descriptor; for logL^16 (solute gas-hexadecane partition coefficient): 25° C.

Structure (SMILES)	α (effective solute H-bond acidity)	β (effective solute H-bond basicity)	π (effective solute dipolarity and polarizability)	logL^16 (solute gas-hexadecane partition coefficient)
CCOCC [Diethylether]	0.00	0.45	0.25	
CCCCCCCCCCCCO [Compound 1-Dodecanol, 1-Dodecanol]	0.37	0.48	0.42	6.640
CCCCCO [Compound 1-Pentanol, 1-Pentanol]	0.37	0.48	0.42	3.106
CO [Methanol]	0.43	0.47	0.44	0.970
OCC(F)(F)F [2,2,2-Trifluoroethanol]	0.57	0.25	0.60	1.224
Sc1ccccc1 [Thiophenol]	0.09	0.16	0.80	
OCc1ccccc1 [Benzyl alcohol]	0.33	0.56	0.87	4.221
CCCCCCCCCCCO [Compound 1-Undecanol, 1-Undecanol]	0.37	0.48	0.42	6.130
ClC(Cl)(Cl)Cl [Tetrachloromethane]	0.00	0.00	0.38	2.823
CCF [Fluoroethane]	0.00	0.10	0.35	0.559
CCN(CC)CC [Triethylamine]	0.00	0.79	0.15	3.040
COc1ccccc1O [2-Methoxyphenol]	0.22	0.52	0.91	4.449
c1ccccc1 [Benzene]			0.52	
COC(=O)c1ccccc1C(=O)OC [Dimethyl phthalate]	0.00	0.88	1.41	
C1CCCCCCC1 [Cyclooctane]	0.00	0.00	0.10	4.329
CCCCCCCl [1-Chlorohexane]	0.00	0.10	0.40	3.777
Cc1ccc([N+](=O)[O-])cc1 [4-Nitrotoluene]	0.00	0.28	1.11	5.154
Cc1ccccc1O [o-Cresol]	0.52	0.30	0.86	4.218
Oc1ccccc1F [2-Fluorophenol]	0.61	0.26	0.69	3.453
Oc1ccc(Cl)cc1 [4-Chlorophenol]	0.67	0.20	1.08	4.775
Oc1ccc2ccccc2c1 [Compound 2-Naphthol, 2-Naphthol]	0.61	0.40	1.08	
N#Cc1cccc(O)c1 [3-Cyanophenol]	0.77	0.28	1.55	5.181
C1CCCCC1 [Cyclohexane]	0.00	0.00	0.10	2.964
Oc1ccc(F)cc1 [4-Fluorophenol]	0.63	0.23	0.97	3.844
c1ccc2c(c1)sc1ccccc12 [Dibenzothiophen]	0.00	0.18	1.31	7.575
CCOP(=O)(OCC)OCC [Triethyl phosphate]	0.00	1.06	1.00	4.750
ClC=CCl [1,2-Dichloroethene]	0.11	0.05	0.61	
CCCCNCCCC [Di-n-butylamine]	0.08	0.69	0.30	4.349
